In patent publication US6921821B2, “Antagonists of melanin concentrating hormone receptor” (Abbott Laboratories, priority 2002, dated 2005):

What follows are molecules tested against T1, murine MCHR (Mus musculus, UniProt Q8JZL2) (assay: Assay for release of intracellular calcium (FLIPR, Fluo-4), inhibition of MCH-induced Ca++ flux). Conditions: test compound at a dose of 10 μM, HEK293 cells expressing the murine MCHR, read-out: inhibition of MCH (MCH induced Ca++ flux / fluorescence).
T1 construct: expressed in transfected cells; host or cells: HEK293
T1 sequence (Q8JZL2 whole entry): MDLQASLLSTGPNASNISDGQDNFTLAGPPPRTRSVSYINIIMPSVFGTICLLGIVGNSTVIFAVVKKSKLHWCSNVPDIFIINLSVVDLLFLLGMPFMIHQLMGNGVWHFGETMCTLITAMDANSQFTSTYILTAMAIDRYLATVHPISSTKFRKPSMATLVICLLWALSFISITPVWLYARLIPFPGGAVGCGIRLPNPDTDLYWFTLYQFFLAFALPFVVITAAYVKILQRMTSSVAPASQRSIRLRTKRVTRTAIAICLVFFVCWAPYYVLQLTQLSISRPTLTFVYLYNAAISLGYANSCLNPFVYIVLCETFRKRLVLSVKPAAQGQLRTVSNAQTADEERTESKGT
Format: cell-based
Experimental: Assay for Release of Intracellular Calcium
Activation of the melanin concentrating hormone receptor (MCHR) by MCH induces the release of Ca^++ from intracellular stores. This intracellular calcium release is measured using a fluorometric imaging plate reader (FLIPR™, Molecular Devices Corp.) in conjunction with the Ca^++-sensitive dye Fluo-4. Release of Ca^++ from intracellular stores causes an increase in fluorescence of the dye that is proportional to Ca^++ concentration. Briefly, the assays are performed as follows. HEK293 cells expressing the murine MCHR are plated overnight at 50,000 cells/well in 96-well plates. The following day, culture medium is removed and replaced with 100 μl/well of D-PBS (+glucose and sodium pyruvate) containing 2.5 μM Fluo-4AM (Molecular Probes), 0.01% Pluronic F-127 and 2.5 mM probenecid. Cells are loaded with the Fluo-4 dye for at least one hour at room temp. After loading, the cells are washed gently to remove extracellular dye and 100 μl of D-PBS (+glucose and sodium pyruvate) is added to each well. Test compounds are prepared at 40 μM in 4% DMSO. The cell plate is placed in the FLIPR™ and 50 μl/well of test compound is delivered. The calcium signal is followed for 3 minutes to assay for potential agonist activity by the test compounds. Then 50 μl/well of 12 nM mouse MCH (in D-PBS containing 0.1% BSA) is added and the ligand-induced calcium signal is followed for an additional 3 minutes. Antagonist activity as determined by the test compounds ability to inhibit MCH induced Ca^++ flux is calculated as % inhibition as described by the following formula: % inhibition=[1−((fTC−fB)÷(fMCH−fB))]×100, where fTC=MCH-induced fluorescence in the presence of test compound; fMCH=MCH-induced fluorescence in the absence of test compound; and fB=Baseline fluorescence.
MCH (3 nM) usually elicits a response of 30,000-40,000 relative fluorescence units (RFU) with a baseline of about 1000 RFU. Fluo-4 fluorescence is measured at 488 nm, with an exposure of 0.40 sec. and F-stop=2.0 and the laser set at 0.40-0.60 W constant light output.

Inhibition at 10 µM, ≥ 50%:
CCc1ccc2c(c1)c(NC1CCN(Cc3ccc4occc4c3)CC1)cc(=O)n2C [Compound V-25, 4-(1-Benzofuran-5-ylmethyl-piperidin-4-ylamino)-6-ethyl-1-methyl-1H-quinolin-2-one]
O=c1cc(NC2CCN(Cc3ccc4occc4c3)CC2)c2cc(Cl)ccc2n1Cc1ccccn1 [Compound V-26, 4-(1-Benzofuran-5-ylimethyl-piperidin-4-ylamino)-6-chloro-1-pyridin-2-ylmethyl-1H-quinolin-2-one]
N#Cc1c(NC2CCN(Cc3ccc4c(c3)OCO4)CC2)c2cc(Cl)ccc2[nH]c1=O [Compound V-27, 4-(1-Benzo[1,3]dioxol-5-ylmethyl-piperidin-4-ylamino)-6-chloro-2-oxo-1,2-dihydro-quinoline-3-carbonitrile]
CCc1ccc2c(c1)c(NC1CCN(Cc3ccc4occc4c3)CC1)cc(=O)n2CC [Compound V-28, 4-(1-Benzofuran-5-ylmethyl-piperidin-4-ylamino)-1,6-diethyl-1H-quinolin-2-one]
Cn1c(=O)cc(NC2CCN(C/C=C/c3ccccc3)CC2)c2cc(Cl)ccc21 [Compound V-29, 6-Chloro-1-methyl-4-[1-(3-phenyl-allyl)-piperidin-4-ylamino]-1H-quinolin-2-one]
COC(=O)c1c(NC2CCN(Cc3ccc4ccccc4c3)CC2)c2cc(Cl)ccc2n(C)c1=O [Compound V-30, 6-Chloro-1-methyl-4-(1-naphthalen-2-ylmethyl-piperidin-4-ylamino)-2-oxo-1,2-dihydro-quinoline-3-carboxylic acid methyl ester]
Cn1c(=O)cc(NC2CCN(Cc3ccc4c(c3)OCO4)CC2)c2cc(C(F)(F)F)ccc21 [Compound V-31, 4-(1-Benzo[1,3]dioxol-5-ylmethyl-piperidin-4-ylamino)-1-methyl-6-trifluoromethyl-1H-quinolin-2-one]
COc1ccc(CN2CCC(Nc3c(C#N)c(=O)n(C)c4ccc(Cl)cc34)CC2)cc1F [Compound V-32, 6-Chloro-4-[1-(3-fluoro-4-methoxy-benzyl)-piperidin-4-ylamino]-1-methyl-2-oxo-1,2-dihydro-quinoline-3-carbonitrile]
Cn1c(=O)cc(NC2CCN(Cc3ccc4occc4c3)CC2)c2cc(C(F)(F)F)ccc21 [Compound V-33, 4-(1-Benzofuran-5-ylmethyl-piperidin-4-ylamino)-1-methyl-6-trifluoromethyl-1H-quinolin-2-one]
CC(c1ccc2c(c1)OCO2)N1CCC(Nc2c(C(=O)N(C)C)c(=O)n(C)c3ccc(Cl)cc23)CC1 (centres unmarked) [Compound V-34, 4-[1-(1-Benzo[1,3]dioxol-5-yl-ethyl)-piperidin-4-ylamino]-6-chloro-1-methyl-2-oxo-1,2-dihydro-quinoline-3-carboxylic acid dimethylamide]
O=c1cc(NC2CCN(Cc3ccncc3)CC2)c2cc(Cl)ccc2n1Cc1ccncc1 [Compound V-35, 6-Chloro-1-pyridin-4-ylmethyl-4-(1-pyridin-4-ylmethyl-piperidin-4-ylamino)-1H-quinolin-2-one]
O=c1cc(NC2CCN(Cc3ccc4c(c3)OCO4)CC2)c2cccc3c2n1CCC3 [Compound V-36, 1-(1-Benzo[1,3]dioxol-5-ylmethyl-piperidin-4-ylamino)-6,7-dihydro-5H-pyrido[3,2,1-ij]quinolin-3-one]
COC(=O)c1c(NC2CCN(Cc3ccc4ccccc4c3)CC2)c2cc(Cl)ccc2[nH]c1=O [Compound V-37, 6-Chloro-4-(1-naphthalen-2-ylmethyl-piperidin-4-ylamino)-2-oxo-1,2-dihydro-quinoline-3-carboxylic acid methyl ester]
Cc1ccc2c(c1)c(NC1CCN(C/C=C/c3ccccc3)CC1)cc(=O)n2C [Compound V-38, 1,6-Dimethyl-4-[1-(3-phenyl-allyl)-piperidin-4-ylamino]-1H-quinolin-2-one]
